This passage reports IC50 results from patent US9790210B2, “N-(monocyclic aryl),N'-pyrazolyl-urea, thiourea, guanidine and cyanoguanidine compounds as TrkA kinase inhibitors” (Array BioPharma Inc., priority 2012, dated 2017).

A value given as a limit tells only on which side of the number the result lay.

Sequence of TrkA (P04629 440-796 limits assumed): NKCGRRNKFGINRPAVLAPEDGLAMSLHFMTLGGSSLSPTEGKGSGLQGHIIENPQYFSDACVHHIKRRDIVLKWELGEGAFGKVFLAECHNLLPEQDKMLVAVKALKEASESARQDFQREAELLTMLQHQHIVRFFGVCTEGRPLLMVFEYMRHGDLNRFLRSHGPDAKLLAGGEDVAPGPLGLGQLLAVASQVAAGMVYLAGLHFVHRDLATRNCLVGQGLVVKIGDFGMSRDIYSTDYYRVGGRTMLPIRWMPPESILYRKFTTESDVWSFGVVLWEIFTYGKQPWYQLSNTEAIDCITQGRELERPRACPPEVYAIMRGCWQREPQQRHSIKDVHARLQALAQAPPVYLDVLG

This assay concerns the target TrkA (Homo sapiens, UniProt P04629). The assay is described as follows: TrkA LanthaScreen Eu Kinase Binding Assay. The note with it: averaged IC50; TR-FRET binding assay; read-out: TrkA Enzyme IC50. The arrangement: 6HIS tagged cytoplasmic domain from Invitrogen, Catalog No. PV3144; purchased Invitrogen PV3144. On the procedure:
TrkA binding activity was determined in a TrkA LanthaScreen™ Eu Kinase Binding Assay. 5 nM His-tagged recombinant human TrkA (6HIS tagged cytoplasmic domain from Invitrogen, Catalog No. PV3144) was incubated with 4 nM Alexa-Fluor® Tracer 236 (Invitrogen Cat. No. PV5592), 2 nM biotinylated anti-His (Invitrogen Cat. No. PV6090), and 2 nM europium-labeled Streptavidin (Invitrogen Cat. No. PV5899), in buffer (25 mM MOPS, pH 7.5, 5 mM MgCl2, 0.005% Triton X-100). Three fold serial dilutions of compounds of the invention in DMSO were added to a final percentage of 2% DMSO. After 60-minute incubation at 22° C., the reaction was measured using the EnVision mutlimode plate reader (PerkinElmer) via TR-FRET dual wavelength detection at […]. The percent of control was calculated using a ratiometric emission factor. The IC50 values were determined by fitting a four parameter model to the percent of control data.
Table A provides averaged IC50 values for compounds of the invention when tested in the assay of Example A, where A represents an averaged IC50 value<100 nM; B represents an averaged IC50 value from 100 to 1,000 nM; and C represents an averaged IC50 value from 1,000 to 10,000 nM.
As to `COCCOc1nc(C)ccc1NC(=O)Nc1c(C)c(-c2cnn(C)c2)nn1-c1ccccc1` [Example 1, 1-(1′,4-dimethyl-1-phenyl-1H,1′H-[3,4′-bipyrazol]-5-yl)-3-(2-(2-methoxyethoxy)-6-methylpyridin-3-yl)urea], the IC50 lay within 1000 to 10000 nM.

As for `COCCOc1ccc(C(F)(F)F)cc1NC(=O)Nc1c(C)c(-c2cnn(C)c2)nn1-c1ccccc1` [Example 2, 1-(1′,4-dimethyl-1-phenyl-1H,1′H-[3,4′-bipyrazol]-5-yl)-3-(2-(2-methoxyethoxy)-5-(trifluoromethyl)phenyl)urea], the concentration for half-maximal inhibition (IC50) was less than 100 nM.

For the molecule `COCCOc1cc(Cl)c(Cl)cc1NC(=O)Nc1c(C)c(-c2cnn(C)c2)nn1-c1ccccc1` [Example 3, 1-(4,5-dichloro-2-(2-methoxyethoxy)phenyl)-3-(1′,4-dimethyl-1-phenyl-1H,1′H-[3,4′-bipyrazol]-5-yl)urea], the IC50 was less than 100 nM.

For the molecule `COCCOc1ncc(C(F)(F)F)cc1NC(=O)Nc1c(C)c(-c2cnn(C)c2)nn1-c1ccccc1` [Example 4, 1-(1′,4-dimethyl-1-phenyl-1H,1′H-[3,4′-bipyrazol]-5-yl)-3-(2-(2-methoxyethoxy)-5-(trifluoromethyl)pyridin-3-yl)urea], the IC50 lay in the range of 100 to 1000 nM.

Take `COCCOc1cc(Cl)c(F)cc1NC(=O)Nc1c(C)c(-c2cnn(C)c2)nn1-c1ccccc1` [Example 5, 1-(4-chloro-5-fluoro-2-(2-methoxyethoxy)phenyl)-3-(1′,4-dimethyl-1-phenyl-1H,1′H-[3,4′-bipyrazol]-5-yl)urea]: the IC50 is less than 100 nM.

For `COCCOc1nc(C)c(Cl)cc1NC(=O)Nc1c(C)c(-c2cnn(C)c2)nn1-c1ccccc1` [Example 6, 1-(5-chloro-2-(2-methoxyethoxy)-6-methylpyridin-3-yl)-3-(1′,4-dimethyl-1-phenyl-1H,1′H-[3,4′-bipyrazol]-5-yl)urea], the IC50 is less than 100 nM.

Turning to `COCCOc1nc(C(F)(F)F)ccc1NC(=O)Nc1c(C)c(-c2cnn(C)c2)nn1-c1ccccc1` [Example 7, 1-(1′,4-dimethyl-1-phenyl-1H,1′H-[3,4′-bipyrazol]-5-yl)-3-(2-(2-methoxyethoxy)-6-(trifluoromethyl)pyridin-3-yl)urea], the IC50 fell in the range of 100 to 1000 nM.

On to `COCCOc1cc(Cl)c(Cl)cc1NC(=O)Nc1c(C)c(-c2ccc(=O)n(C)c2)nn1-c1ccccc1` [Example 8, 1-(4,5-dichloro-2-(2-methoxyethoxy)phenyl)-3-(4-methyl-3-(1-methyl-6-oxo-1,6-dihydropyridin-3-yl)-1-phenyl-1H-pyrazol-5-yl)urea], for which the IC50 is less than 100 nM.

With `COCCCc1ccc(Cl)cc1NC(=O)Nc1c(C)c(-c2cnn(C)c2)nn1-c1ccccc1` [Example 9, 1-(5-chloro-2-(3-methoxypropyl)phenyl)-3-(1′,4-dimethyl-1-phenyl-1H,1′H-[3,4′-bipyrazol]-5-yl)urea], the IC50 was less than 100 nM.

For `COCCOc1cc(C(F)(F)F)ccc1NC(=O)Nc1c(C)c(-c2cnn(C)c2)nn1-c1ccccc1` [Example 10, 1-(1′,4-dimethyl-1-phenyl-1H,1′H-[3,4′-bipyrazol]-5-yl)-3-(2-(2-methoxyethoxy)-4-(trifluoromethyl)phenyl)urea], the IC50 is less than 100 nM.

As to `COCCOc1cc(Cl)ccc1NC(=O)Nc1c(C)c(-c2cnn(C)c2)nn1-c1ccccc1` [Example 11, 1-(4-chloro-2-(2-methoxyethoxy)phenyl)-3-(1′,4-dimethyl-1-phenyl-1H,1′H-[3,4′-bipyrazol]-5-yl)urea], the IC50 is 100 to 1000 nM.

For the molecule `COCCOc1ccc(Cl)cc1NC(=O)Nc1c(C)c(-c2cnn(C)c2)nn1-c1ccccc1` [Example 12, 1-(5-chloro-2-(2-methoxyethoxy)phenyl)-3-(1′,4-dimethyl-1-phenyl-1H,1′H-[3,4′-bipyrazol]-5-yl)urea], the IC50 is less than 100 nM.

As to `COCCCc1cc(Cl)c(Cl)cc1NC(=O)Nc1c(C)c(-c2ccc(=O)n(C)c2)nn1-c1ccccc1` [Example 13, 1-(4,5-dichloro-2-(3-methoxypropyl)phenyl)-3-(4-methyl-3-(1-methyl-6-oxo-1,6-dihydropyridin-3-yl)-1-phenyl-1H-pyrazol-5-yl)urea], the IC50 was less than 100 nM.

In the case of `COCCCc1cc(Cl)c(Cl)cc1NC(=O)Nc1c(C)c(C2(C#N)CCOCC2)nn1-c1ccccc1` [Example 14, 1-(3-(4-cyanotetrahydro-2H-pyran-4-yl)-4-methyl-1-phenyl-1H-pyrazol-5-yl)-3-(4,5-dichloro-2-(3-methoxypropyl)phenyl)urea], the IC50 was less than 100 nM.

`CNC(=O)c1nn(-c2ccccc2)c(NC(=O)Nc2cc(Cl)c(Cl)cc2CCCOC)c1C` [Example 16, 5-(3-(4,5-dichloro-2-(3-methoxypropyl)phenyl)ureido)-N,4-dimethyl-1-phenyl-1H-pyrazole-3-carboxamide]: the IC50 was less than 100 nM.

`COCCCc1cc(F)c(C(F)(F)F)cc1NC(=O)Nc1c(C)c(-c2ccc(=O)n(C)c2)nn1-c1ccccc1` [Example 17, 1-(4-fluoro-2-(3-methoxypropyl)-5-(trifluoromethyl)phenyl)-3-(4-methyl-3-(1-methyl-6-oxo-1,6-dihydropyridin-3-yl)-1-phenyl-1H-pyrazol-5-yl)urea]: the IC50 is less than 100 nM.

In the case of `COCCCc1cc(Cl)c(Cl)cc1NC(=O)Nc1c(C)c(C2CCN(C)CC2)nn1-c1ccccc1` [Example 18, 1-(4,5-dichloro-2-(3-methoxypropyl)phenyl)-3-(4-methyl-3-(1-methylpiperidin-4-yl)-1-phenyl-1H-pyrazol-5-yl)urea], the IC50 was less than 100 nM.

For `CNC(=O)c1nn(-c2ccccc2)c(NC(=O)Nc2cc(C(F)(F)F)c(F)cc2CCCOC)c1C` [Example 19, 5-(3-(4-fluoro-2-(3-methoxypropyl)-5-(trifluoromethyl)phenyl)ureido)-N,4-dimethyl-1-phenyl-1H-pyrazole-3-carboxamide], the IC50 is less than 100 nM.

For `COCC(F)(F)Cc1cc(Cl)c(Cl)cc1NC(=O)Nc1c(C)c(-c2ccc(=O)n(C)c2)nn1-c1ccccc1` [Example 20, 1-(4,5-dichloro-2-(2,2-difluoro-3-methoxypropyl)phenyl)-3-(4-methyl-3-(1-methyl-6-oxo-1,6-dihydropyridin-3-yl)-1-phenyl-1H-pyrazol-5-yl)urea], the IC50 was less than 100 nM.

Take `COCCCc1cc(Cl)c(Cl)cc1NC(=O)Nc1c(C)c(OC[C@H](O)CO)nn1-c1ccccc1` [Example 21, (R)-1-(4,5-dichloro-2-(3-methoxypropyl)phenyl)-3-(3-(2,3-dihydroxypropoxy)-4-methyl-1-phenyl-1H-pyrazol-5-yl)urea]: the 50% inhibitory concentration (IC50) is less than 100 nM.

For the molecule `COCCCc1cc(F)c(C(F)(F)F)cc1NC(=O)Nc1c(C)c(OC[C@H](O)CO)nn1-c1ccccc1` [Example 22, (R)-1-(3-(2,3-dihydroxypropoxy)-4-methyl-1-phenyl-1H-pyrazol-5-yl)-3-(4-fluoro-2-(3-methoxypropyl)-5-(trifluoromethyl)phenyl)urea], the half-maximal inhibitory concentration (IC50) was less than 100 nM.

Consider `COCCCc1cc(Cl)c(Cl)cc1NC(=O)Nc1c(C)c(OCC2CCN(C)CC2)nn1-c1ccccc1` [Example 24], for which the IC50 is less than 100 nM.

For the molecule `COCCCc1ccc(C(F)(F)F)cc1NC(=O)Nc1c(C)c(-c2ccc(=O)n(C)c2)nn1-c1ccccc1` [Example 25, 1-(2-(3-methoxypropyl)-5-(trifluoromethyl)phenyl)-3-(4-methyl-3-(1-methyl-6-oxo-1,6-dihydropyridin-3-yl)-1-phenyl-1H-pyrazol-5-yl)urea], the IC50 was less than 100 nM.
